Measurements taken from ChEMBL document CHEMBL1201862, “PubChem BioAssay data set” (2004).
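In this assay, cells in 96-well plates receive the compound at five concentrations for 48 hours. Endpoints are linearly interpolated between the surrounding concentrations. GI50 marks 50% less growth.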 Activity calls are given as the source filed them. Cut-off read from the data, not from the text of the source: active = GI50 up to about 1.1 µM and inactive = higher.

Columns and labels:
Test in all cases: NCI anticancer screen, dose series, 48 h
TK-10 = system: TK-10
NCI/ADR-RES = system: NCI/ADR-RES
U-251 = system: U-251
LOX IMVI = system: LOX IMVI
786-0 = system: 786-0
OVCAR-4 = system: OVCAR-4
SNB-75 = system: SNB-75
UACC-257 = system: UACC-257
PC-3 = system: PC-3
DU-145 = system: DU-145
SK-OV-3 = system: SK-OV-3
MDA-MB-435 = system: MDA-MB-435
SF-539 = system: SF-539
SN12C = system: SN12C
Malme-3M = system: Malme-3M
HCC 2998 = system: HCC 2998
HCT-15 = system: HCT-15
HL-60 = system: HL-60
SR = system: SR
COLO 205 = system: COLO 205

Structure (SMILES)	GI50 (TK-10)	GI50 (NCI/ADR-RES)	GI50 (U-251)	GI50 (LOX IMVI)	GI50 (786-0)	GI50 (OVCAR-4)	GI50 (SNB-75)	GI50 (UACC-257)	GI50 (PC-3)	GI50 (DU-145)	GI50 (SK-OV-3)	GI50 (MDA-MB-435)	GI50 (SF-539)	GI50 (SN12C)	GI50 (Malme-3M)	GI50 (HCC 2998)	GI50 (HCT-15)	GI50 (HL-60)	GI50 (SR)	GI50 (COLO 205)
O=C(O)CSSCC(=O)O	> 100 µM (inactive)	> 100 µM (inactive)	> 100 µM (inactive)	> 100 µM (inactive)	> 100 µM (inactive)	> 100 µM (inactive)	> 100 µM (inactive)	> 100 µM (inactive)	> 100 µM (inactive)	> 100 µM (inactive)	> 100 µM (inactive)	> 100 µM (inactive)	> 100 µM (inactive)	> 100 µM (inactive)	> 100 µM (inactive)	> 100 µM (inactive)	> 100 µM	> 100 µM (inactive)	> 100 µM (inactive)	> 100 µM (inactive)
CS(=O)(=O)N1CC(CCl)c2ccc([N+](=O)[O-])cc21 (stereo unspecified)	> 100 µM (inactive)	> 100 µM (inactive)	58.6 µM (inactive)	> 100 µM (inactive)	> 100 µM (inactive)	> 100 µM (inactive)	< 0.01 µM (active)	> 100 µM (inactive)	> 100 µM (inactive)	> 100 µM (inactive)	> 100 µM (inactive)	> 100 µM (inactive)	> 100 µM (inactive)	> 100 µM (inactive)	> 100 µM (inactive)	> 100 µM (inactive)	> 100 µM	> 100 µM (inactive)	> 100 µM (inactive)	> 100 µM (inactive)
CN(C)CCC(=O)[C@@]1(O)CC[C@H]2[C@@H]3CC=C4C[C@@H](O)CC[C@]4(C)[C@H]3CC[C@@]21C	2.1 µM (inactive)	26.7 µM (inactive)	17.3 µM (inactive)	13.7 µM (inactive)	3.68 µM (inactive)	33.4 µM (inactive)	15.2 µM (inactive)	13.3 µM (inactive)	13.4 µM (inactive)	6.65 µM (inactive)	29.8 µM (inactive)	18.2 µM (inactive)	2.6 µM (inactive)	16.9 µM (inactive)	15.3 µM (inactive)	21.3 µM (inactive)	20.1 µM	17.4 µM (inactive)	12.6 µM (inactive)	18.4 µM (inactive)
O=C1c2cc(Cc3ccccc3)c(=O)c(Cc3ccccc3)cc2C(=O)c2cc(Cc3ccccc3)c(=O)c(Cc3ccccc3)cc21	> 100 µM (inactive)	> 100 µM (inactive)	> 100 µM (inactive)	> 100 µM (inactive)	> 100 µM (inactive)	> 100 µM (inactive)	> 100 µM (inactive)	> 100 µM (inactive)	> 100 µM (inactive)	> 100 µM (inactive)	–	> 100 µM (inactive)	> 100 µM (inactive)	> 100 µM (inactive)	> 100 µM (inactive)	> 100 µM (inactive)	> 100 µM	> 100 µM (inactive)	> 100 µM (inactive)	> 100 µM (inactive)
CCN(CC)c1ccc(/C=C/C2=NN(c3cccc(S(=O)(=O)O)c3)C3(C2)SCC(=O)N3c2nc3ccccc3s2)cc1 (stereo unspecified)	23.1 µM (inactive)	> 100 µM (inactive)	25.1 µM (inactive)	45.6 µM (inactive)	63.8 µM (inactive)	23.4 µM (inactive)	74.3 µM (inactive)	30.5 µM (inactive)	25.8 µM (inactive)	27.4 µM (inactive)	–	23.6 µM (inactive)	33 µM (inactive)	59 µM (inactive)	24.7 µM (inactive)	35.2 µM (inactive)	45.6 µM	24 µM (inactive)	26.4 µM (inactive)	24.1 µM (inactive)
CCCCCCCCCCCCCOCCOCCOCCCCC(O)CCCCCCCCCC1=C[C@H](C)OC1=O (stereo partly specified)	2.94 µM (inactive)	10 µM (inactive)	14.1 µM (inactive)	4.31 µM (inactive)	17.6 µM (inactive)	12.3 µM (inactive)	21.1 µM (inactive)	13.2 µM (inactive)	13.8 µM (inactive)	21.7 µM (inactive)	31.8 µM (inactive)	16.9 µM (inactive)	18.7 µM (inactive)	21.4 µM (inactive)	–	17 µM (inactive)	19.1 µM	0.356 µM (active)	2.08 µM (inactive)	20.9 µM (inactive)
CCOC(=O)c1c(SCCN2CCCCC2)n(-c2ccccc2)c(=S)n(-c2ccccc2)c1=O	18 µM (inactive)	21.2 µM (inactive)	28.6 µM (inactive)	12.8 µM (inactive)	14.8 µM (inactive)	17.6 µM (inactive)	15 µM (inactive)	12.4 µM (inactive)	14.6 µM (inactive)	29.6 µM (inactive)	36.2 µM (inactive)	16.3 µM (inactive)	–	19.2 µM (inactive)	16.4 µM (inactive)	> 38.9 µM (inactive)	4.29 µM	3.49 µM (inactive)	2.72 µM (inactive)	11.7 µM (inactive)
